Our source for the MIC, ED50 and Activity values is ChEMBL document CHEMBL1142399, “Water-soluble pleuromutilin derivative with excellent in vitro and in vivo antibacterial activity against gram-positive pathogens” (J Med Chem, 2008).

Values after ≈ are worked out from the molar mass of the structure shown.

The subject of one assay is Enterococcus faecalis. The experiment in a line: microbe, parasite or virus in culture. Conditions: ATCC 29212.
The subject of another assay is Streptococcus pyogenes. The experiment in a line: Antibacterial activity against Streptococcus pyogenes ATCC 12344 by broth microdilution method. The format is functional. A general note: Broth dilution looks for growth in wells or tubes with falling amounts of substance.
Assay [1] relates to Staphylococcus aureus. Put plainly: microbe, parasite or virus in culture.
Assay [2] has as its system Staphylococcus aureus. The experiment in a line: Antibacterial activity against methicillin-resistant Staphylococcus aureus KT0116 in mouse dosed iv 1 hr after infection. The format is functional.
The subject of assay [3] is Enterococcus faecium. The experiment in a line: Antibacterial activity against vancomycin-resistant Enterococcus faecium KU1778 clinical isolate by broth microdilution method. The format is functional.
Assay [4] has as its system Enterococcus faecium. The experiment in a line: microbe, parasite or virus in culture. Conditions: ATCC 19434.
Assay [5] deals with Staphylococcus aureus. The experiment in a line: Antibacterial activity against methicillin-susceptible Staphylococcus aureus Smith in mouse dosed iv 1 hr after infection. The format is functional.
In another assay the test system is Haemophilus influenzae. The experiment in a line: Antibacterial activity against Haemophilus influenzae TH13 by broth microdilution method. The format is functional.
The test system of assay [6] is Staphylococcus aureus. Put plainly: microbe, parasite or virus in culture. This is another data set of the same source.
The test system of assay [7] is Staphylococcus aureus. Put plainly: microbe, parasite or virus in culture. As to conditions: Smith.
Assay [8] deals with Streptococcus pneumoniae. The experiment in a line: Antibacterial activity against penicillin-susceptible Streptococcus pneumoniae ATCC 49619 in mouse dosed iv 1 hr after infection. Type of assay: functional. As to conditions: ATCC 49619, iv.
Assay [9] has as its system Staphylococcus aureus. Put plainly: microbe, parasite or virus in culture. As to conditions: KMP9.
Assay [10] deals with Staphylococcus epidermidis. Put plainly: Antibacterial activity against Staphylococcus epidermidis ATCC 12228 by broth microdilution method. Type of assay: functional.
For the next assay, the system named is Moraxella catarrhalis. Put plainly: Antibacterial activity against Moraxella catarrhalis K1209 by broth microdilution method. Type of assay: functional.
Assay [11] deals with Streptococcus pneumoniae. Put plainly: microbe, parasite or virus in culture.
Assay [12] relates to Streptococcus pneumoniae. The experiment in a line: Antibacterial activity against penicillin-resistant Streptococcus pneumoniae KT2524 in mouse dosed iv 1 hr after infection. Type of assay: functional.
The subject of assay [13] is Streptococcus pneumoniae. The experiment in a line: microbe, parasite or virus in culture. Conditions: ATCC 49619.
Assay [14] has as its system Propionibacterium granulosum. The experiment in a line: Antibacterial activity against Propionibacterium granulosum GAI 7414 by broth microdilution method. Type of assay: functional. Conditions: Cutibacterium granulosum.
Assay [15] concerns Peptoniphilus asaccharolyticus. Put plainly: Antibacterial activity against Peptostreptococcus asaccharolyticus GAI 5534 by broth microdilution method. The format is functional.
The subject of the next assay is Cutibacterium acnes. Put plainly: Antibacterial activity against Propionibacterium acnes GAI 5568 by broth microdilution method. Type of assay: functional.
A further assay relates to Finegoldia magna. The experiment in a line: Antibacterial activity against Peptostreptococcus magnus GAI 5528 by broth microdilution method. Type of assay: functional.
Assay [16] has as its system Peptostreptococcus anaerobius. The experiment in a line: Antibacterial activity against Peptostreptococcus anaerobius GAI 5506 by broth microdilution method. The format is functional.
Assay [17] concerns Staphylococcus saccharolyticus. The experiment in a line: Antibacterial activity against Staphylococcus saccharolyticus GAI 5520 by broth microdilution method. The format is functional.
For another assay, the system named is Atopobium parvulum. The experiment in a line: Antibacterial activity against Atopobium parvulum GAI 5542 by broth microdilution method. Conditions: Lancefieldella parvula. Type of assay: functional.
Assay [18] deals with Streptococcus intermedius. The experiment in a line: Antibacterial activity against Streptococcus intermedius GAI 7416 by broth microdilution method. Type of assay: functional.
Assay [19] relates to Mycoplasmoides pneumoniae. Put plainly: Antibacterial activity against Mycoplasma pneumoniae Mac by broth microdilution method. The format is functional.
Another assay has as its system Clostridium perfringens. The experiment in a line: Antibacterial activity against Clostridium perfringens GAI 5526 by broth microdilution method. Type of assay: functional.
The subject of assay [20] is Mycoplasmoides pneumoniae. Put plainly: Antibacterial activity against Mycoplasma pneumoniae FH Liu by broth microdilution method. Type of assay: functional.
The test system of assay [21] is Streptococcus pneumoniae. Put plainly: Antibacterial activity against penicillin-susceptible Streptococcus pneumoniae ATCC 6303 in mouse pulmonary infection model assessed as survival at 6.25 mg/kg, ip twice daily for 3 days. Type of assay: functional. Conditions: route intraperitoneal.

Regarding `CC[C@H]1OC(=O)[C@H](C)[C@@H](O[C@H]2C[C@@](C)(OC)[C@@H](O)[C@H](C)O2)[C@H](C)[C@@H](O[C@@H]2O[C@H](C)C[C@H](N(C)C)[C@H]2O)[C@](C)(O)C[C@@H](C)C(=O)[C@H](C)[C@@H](O)[C@]1(C)O` [ERYTHROMYCIN], the MIC with Enterococcus faecalis was 2 µg/mL (≈ 2.73 µM); against Streptococcus pyogenes it was 0.008 µg/mL (≈ 0.0109 µM); in the assay on Staphylococcus aureus [1], 0.063 µg/mL (≈ 0.0858 µM); against Enterococcus faecium [3], greater than 128 µg/mL; with Enterococcus faecium [4], 1 µg/mL (≈ 1.36 µM); with Haemophilus influenzae, 2 µg/mL (≈ 2.73 µM). The MIC was greater than 128 µg/mL with Staphylococcus aureus [6]; 0.125 µg/mL (≈ 0.17 µM) in the assay with Staphylococcus aureus [7]; 32 µg/mL (≈ 43.6 µM) with Staphylococcus aureus [9]; 0.063 µg/mL (≈ 0.0858 µM) in [10]; 0.032 µg/mL (≈ 0.0436 µM) against Moraxella catarrhalis; greater than 128 µg/mL in the assay on Streptococcus pneumoniae [11]. This compound also yielded an MIC against Streptococcus pneumoniae [13] of 0.016 µg/mL (≈ 0.0218 µM). Also, the ED50 with Staphylococcus aureus [2] is greater than 100 mg/kg; in the assay with Staphylococcus aureus [5], 2.55 mg/kg; in the assay on Streptococcus pneumoniae [8], 1.48 mg/kg; in the assay with Streptococcus pneumoniae [12], greater than 100 mg/kg.
Turning to `C[C@H]1COc2c(N3CCN(C)CC3)c(F)cc3c(=O)c(C(=O)O)cn1c23.C[C@H]1COc2c(N3CCN(C)CC3)c(F)cc3c(=O)c(C(=O)O)cn1c23.O` [LEVOFLOXACIN], the MIC was found to be 0.5 µg/mL in the assay on Enterococcus faecalis; 0.5 µg/mL against Streptococcus pyogenes; 0.25 µg/mL in assay [14]; 2 µg/mL in assay [15]; 0.125 µg/mL in the assay on Staphylococcus aureus [1]; 0.25 µg/mL against Cutibacterium acnes. Also, the MIC against Finegoldia magna was 0.125 µg/mL; against Enterococcus faecium [3] it was 64 µg/mL; against Enterococcus faecium [4] it was 4 µg/mL; in the assay on Haemophilus influenzae it was 0.032 µg/mL; in assay [16] it was 0.125 µg/mL; in assay [17] it was 0.125 µg/mL. Further, the MIC is greater than 128 µg/mL against Staphylococcus aureus [6]; 0.125 µg/mL against Staphylococcus aureus [7]; 0.25 µg/mL against Atopobium parvulum; greater than 128 µg/mL in the assay on Staphylococcus aureus [9]; 0.25 µg/mL in assay [10]; 0.063 µg/mL in the assay on Moraxella catarrhalis. Also, the MIC worked out at 0.5 µg/mL in [18], 0.063 µg/mL in assay [19], 0.25 µg/mL in the assay on Clostridium perfringens and 0.125 µg/mL in [20]. Besides, the ED50 is greater than 100 mg/kg with Staphylococcus aureus [2], 0.78 mg/kg in the assay with Staphylococcus aureus [5], 24.7 mg/kg with Streptococcus pneumoniae [8] and greater than 100 mg/kg with Streptococcus pneumoniae [12].
As for `CN(C)c1ccc(O)c2c1C[C@H]1C[C@H]3[C@H](N(C)C)C(O)=C(C(N)=O)C(=O)[C@@]3(O)C(O)=C1C2=O` [MINOCYCLINE], the MIC against Streptococcus pyogenes was found to be 0.063 µg/mL (≈ 0.138 µM); in assay [14], 0.25 µg/mL (≈ 0.546 µM); in [15] it was 16 µg/mL (≈ 35 µM); with Staphylococcus aureus [1], 0.063 µg/mL (≈ 0.138 µM); with Cutibacterium acnes it was 0.125 µg/mL (≈ 0.273 µM); in the assay on Finegoldia magna it was 0.125 µg/mL (≈ 0.273 µM). For the same compound, the MIC came to 0.063 µg/mL (≈ 0.138 µM) with Enterococcus faecium [3]; 0.063 µg/mL (≈ 0.138 µM) in the assay with Enterococcus faecium [4]; 0.5 µg/mL (≈ 1.09 µM) with Haemophilus influenzae; 0.032 µg/mL (≈ 0.0699 µM) in assay [16]; 0.125 µg/mL (≈ 0.273 µM) in assay [17]; 16 µg/mL (≈ 35 µM) with Staphylococcus aureus [6]. For the same compound, the MIC against Staphylococcus aureus [7] is 0.063 µg/mL (≈ 0.138 µM); in the assay on Atopobium parvulum it was 0.25 µg/mL (≈ 0.546 µM); in the assay on Staphylococcus aureus [9], 4 µg/mL (≈ 8.74 µM); in assay [10], 0.125 µg/mL (≈ 0.273 µM); with Moraxella catarrhalis, 0.25 µg/mL (≈ 0.546 µM); in assay [18], 0.25 µg/mL (≈ 0.546 µM). Besides, the MIC in the assay on Streptococcus pneumoniae [11] was found to be 8 µg/mL (≈ 17.5 µM); in assay [19], 0.25 µg/mL (≈ 0.546 µM); with Clostridium perfringens, 0.063 µg/mL (≈ 0.138 µM); against Streptococcus pneumoniae [13] it was 0.032 µg/mL (≈ 0.0699 µM); in [20] it was 0.25 µg/mL (≈ 0.546 µM). Moreover, the median effective dose (ED50) came to 50 mg/kg with Staphylococcus aureus [2], 0.515 mg/kg in the assay on Staphylococcus aureus [5], 0.968 mg/kg with Streptococcus pneumoniae [8] and 50 mg/kg in the assay on Streptococcus pneumoniae [12].
With `CN[C@H](CC(C)C)C(=O)N[C@H]1C(=O)N[C@@H](CC(N)=O)C(=O)N[C@H]2C(=O)N[C@H]3C(=O)N[C@H](C(=O)N[C@H](C(=O)O)c4cc(O)cc(O)c4-c4cc3ccc4O)[C@H](O)c3ccc(c(Cl)c3)Oc3cc2cc(c3O[C@@H]2O[C@H](CO)[C@@H](O)[C@H](O)[C@H]2O[C@H]2C[C@](C)(N)[C@H](O)[C@H](C)O2)Oc2ccc(cc2Cl)[C@H]1O` [VANCOMYCIN], in the assay on Streptococcus pneumoniae [21], the Activity is listed as 50%. The MIC in assay [14] was 0.5 µg/mL (≈ 0.345 µM); in assay [15] it was 0.125 µg/mL (≈ 0.0863 µM); with Cutibacterium acnes it was 0.5 µg/mL (≈ 0.345 µM); with Finegoldia magna it was 0.25 µg/mL (≈ 0.173 µM); in the assay with Enterococcus faecium [3], greater than 128 µg/mL; against Haemophilus influenzae it was greater than 128 µg/mL. Further, the MIC in assay [16] worked out at 0.25 µg/mL (≈ 0.173 µM); in [17] it was 2 µg/mL (≈ 1.38 µM); with Atopobium parvulum it was 2 µg/mL (≈ 1.38 µM); in the assay with Moraxella catarrhalis, 64 µg/mL (≈ 44.2 µM); in assay [18], 1 µg/mL (≈ 0.69 µM); with Streptococcus pneumoniae [11] it was 0.5 µg/mL (≈ 0.345 µM). Also, the MIC in assay [19] is greater than 128 µg/mL; against Clostridium perfringens it was 0.5 µg/mL (≈ 0.345 µM); with Streptococcus pneumoniae [13], 0.25 µg/mL (≈ 0.173 µM); in assay [20], greater than 128 µg/mL. The ED50 in the assay with Staphylococcus aureus [2] is 1.01 mg/kg; in the assay with Staphylococcus aureus [5] it was 0.88 mg/kg; with Streptococcus pneumoniae [8], 1.06 mg/kg; with Streptococcus pneumoniae [12] it was 2.37 mg/kg.

As a reminder, the ED50 is the dose at which the effect has come halfway, by size or by number of responders. The low end stands for an effect at a small dose, the high end for a need for a large dose.
